Data: patent publication US10555910B2, “Oligonucleotide lipid nanoparticle compositions, methods of making and methods of using the same” (Ohio State Innovation Foundation, priority 2014, dated 2020)

Tests used:
[1] = test system: A549 cells; assay type: cell-based, human; set-up: decrease of cell viability: dose or concentration left out as unconfirmed
Description: Cells were grown in 96-well plates at a density of 2.0 ×10^4 cells/well. Cells were treated with controls or QT/AM-21 at 50, 100, or 200 nM, with and without PTX (4.1 nM) dissolved in a small volume of 1:1 Cremophor EL:ethanol solution. Relative cell viability was quantified by CellTiter 96® AQueous One Solution Cell Proliferation Assay (Promega, Madison, Wis., USA) according to the manufacturer's protocol 72 h following the start of treatment. Briefly, 20 μL MTS assay solution was added to each well and the plates were incubated for 1 h. The absorbance at 490 nm was recorded to determine cytotoxicity relative to the untreated control.
A549 cells were cultured as in Example 2, and treated with either QT/AM-21 (5′-U*C*A*ACAUCAGUCUGAUAAG*C*U*A-3′, SEQ ID NO:3) at three different concentrations (50 nM, 100 nM or 200 nM), paclitaxel (PTX) or a combination of PTX and QT/AM-21 (PTX/50 nM QT/AM-21; PTX/QT/100 nM-21; TX/200 nM QT/AM-21). (Dosage of PXT was 4nM).
The cells were incubated with the drugs for 72 h; after which the cells were harvested and tested for cytotoxicity and viability using MTS assay kit by Promega. Absorbance scanning was done at 490 nm to determine relative cell viabilities.

[2] = test system: A549 xenograft; test: Combination therapy (QT/AM-21 and PTX) in A549 xenograft; assay type: in vivo, mice; settings: 1 mg/kg QT/AM-21 tail vein and/or 3 mg/kg PTX i.p., start ~80 mm^3, 4 weeks
Description: Mice were treated by tail vein injection with saline control or 1 mg/kg QT/AM-21. Mice receiving PTX treatment as monotherapy or combination therapy received PTX dissolved in 1:1 Cremephor EL:ethanol solution at a dose of 3 mg/kg via intraperitoneal injection. Mice were dosed on days 1, 3, 5, 8, 15, 22, 29 and were monitored over a 4 week period. 48 h following the last dose, mice were euthanized and tumors were collected for gene regulation study.

[3] = test system: miR-21; test: In vivo gene regulation in A549 xenograft tumors (qRT-PCR); set-up: species or system mice; settings: 1 mg/kg QT/AM-21 and/or 3 mg/kg PTX
Description: Female athymic nude mice (n=5 per group) were implanted with 1.0×10^6 A549 cells/mouse and treatment began when tumors reached a size of ≥100 mm^3. Mice were treated by tail vein injection with saline control or 1 mg/kg QT/AM-21. Mice receiving PTX treatment as monotherapy or combination therapy received PTX dissolved in 1:1 Cremephor EL:ethanol solution at a dose of 3 mg/kg via intraperitoneal injection. Mice were dosed on days 1, 3, 5, 8, 15, 22, 29 and were monitored over a 4 week period. 48 h following the last dose, mice were euthanized and tumors were collected for gene regulation study.
Tumors were harvested and placed in TRIzol reagent (Life Technologies) following treatment and homogenized. mRNA was isolated per the manufacturer's protocol. qRT-PCR was then completed according to the same procedure as outlined in the in vitro section.

[4] = test system: miR-21; test: In vitro gene regulation in A549 cells (qRT-PCR of miR-21 and its target genes); assay type: cell-based, human; settings: 100 nM AM-21, mRNA relative to GAPDH
Description: Cells were grown in 24-well plates at a density of 7.0×10^5 cells/well 24 h prior to transfection. QT/AM-21 of varying lipid composition or QT/negative control (NC) were administered at 50 nM in the presence of 20% serum containing media to determine the optimal QT composition. […] Cells were incubated at 37° C. with transfection media for 4 h and then washed three times with PBS. Fresh complete cell culture media was added and the cells were incubated at 37° C. for an additional 44 h. RNA was isolated from cells by RNeasy 96 kit (Qiagen, Valencia, Calif., USA). qRT-PCR was conducted with Taqman® MicroRNA Assay (Life Technologies) or EXPRESS One-Step Superscript® qRT-PCR kit (Life Technologies) on an Applied Biosystems StepOnePlus™ RT-PCR system (Life Technologies). The relative amount of […] was calculated and compared according to the 2^−ΔΔCt method.
Lung cancer A549 cells (human lung adenocarcinoma epithelial cell line) were cultured in vitro as standard cell culture. Cells were cultured in RPMI 1640 media supplemented with 10% FBS and 1% antibiotics/antimycotics in a 5% CO2 atmosphere at 37° C. […]
RNA was extracted by TRIzol reagent per manufacturer's protocol. cDNA was generated by Maxima First Strand cDNA synthesis kit per manufacture's protocol. […] RECK and PTEN mRNA levels were measured relative to GAPDH.

[5] = test system: A549 cells; test: Migration assay (scratch wound healing); assay type: cell-based, human; settings: A549, QT lipids or AM-21 (200 nM) alone, 48 h
Description: A wound healing model was conducted to examine the migratory ability of A549 cells following treatment. A549 cells were plated at a density of 6.0×10^5 cells/well in a 33 mm petri dish 24 h prior to transfection. A scratch wound across the dish was made using a 10 μL pipet tip immediately before treatment. Culture media was removed and replaced with transfection media containing QT/AM-21 or appropriate controls diluted in complete media. Cells were allowed to proliferate at 37° C. for 48 h. Distances between edges of the wound were measured on a Nikon E800 microscope (Nikon, Tokyo, Japan) and SPOT Advanced Imaging Software (v5.0, Diagnostic Instruments Inc., Sterling Heights, Mich., USA).
A549 cells were cultured following standard culture procedure and incubated with QT/AM-21 (5′-U*C*A*ACAUCAGUCUGAUAAG*C*U*A-3′, SEQ ID NO:3) at three different concentrations (50 nM, 100 nM and 200 nM), or free, unformulated AM-21 (200 nM) for 48 hours. The untreated cells and cells treated with empty “QTsome™” lipid nanoparticle formulation were used as control. The migration of tumor cells was determined.

[6] = test system: A549 cells; test: Matrigel invasion assay; assay type: cell-based, human; settings: A549, QT lipids or AM-21 alone, 48 h
Description: Matrigel (BD Biosciences, San Jose, Calif., USA) was combined with serum-free RPMI 1640 culture media in a 1:1 ratio. 70 μL of gel was added to each well insert of a 24-well plate. The gel was allowed to set for 1 h at 37° C. A549 cells were seeded at […] in a volume of 100 μL/well on top of the gel in the insert. Transfection media containing various formulations or controls at 2×concentration in a 100 μL volume were added to the top of the well inserts. 500 μL 10% fetal bovine supplemented media was added as a chemoattractant below the transwell insert. The plate was incubated at 37° C. for 48 h. Following the incubation period, cells remaining in the top of the well inserts were removed with a cotton swab. Well inserts were rinsed with PBS and placed in 500 uL 0.25% trypsin solution for 1 h at 37° C. Detached cells were counted on a hemocytometer.
A matrigel invasion assay was also performed after 48 hour treatment, as follows: Chilled Matrigel was combined with chilled serum-free RPMI 1640 culture media in a 1:1 ratio. 70 uL of gel was added to each well insert of a 24-well plate. The gel was allowed to set for 1 hour at 37° C. A549 cells were seeded at 75,000 cells/well in a volume of 100 uL/well on top of the gel. […] Detached cells were counted on a hemocytometer.

CC(=O)O[C@H]1C(=O)[C@@]2(C)[C@H]([C@H](OC(=O)c3ccccc3)[C@]3(O)C[C@H](OC(=O)[C@H](O)[C@@H](NC(=O)c4ccccc4)c4ccccc4)C(C)=C1C3(C)C)[C@]1(OC(C)=O)CO[C@@H]1C[C@@H]2O [PTX, Paclitaxel]
cells still alive compared to untreated control ([1]; A549, PTX alone (4 nM), 72 h, MTS): ~65% | decrease of cell viability ([1]; human, 72 h): 40% | tumor volume at end of study [2]: 246.4 mm^3 | upregulation of DDAH1 and PTEN in tumors [3]: moderate upregulation | DDAH1 upregulation in tumors ([3]; 48 h after last dose): 1.7 fold | PTEN upregulation in tumors ([3]; 48 h after last dose): 1.5 fold

u*c*a*acaucagucugauaag*c*u*a (UCAACAUCAGUCUGAUAAGCUA; linkages s3 o15 s3 (s phosphorothioate, o phosphodiester), sugars by position and methylation of C not given here; further chemistry not fully specified) [AM-21]
expression of RECK compared to untreated control A549 cells [4]: upregulated | change of cell viability on addition to PTX ([1]; A549, free AM-21 or QT lipids added to PTX, MTS): did not result in significant decreases in cell viability | cell migration in the wound region [5]: did not confer significant decreases in cell migration | cell invasion [6]: did not significantly retard cell invasion
